Data: patent publication US8506942B2, “Hair care composition” (Conopco, Inc., priority 2007, dated 2013)

Target: T1, trypsin (Bos taurus, UniProt P00760)
T1 construct: gene PRSS1
T1 sequence (P00760 24-246): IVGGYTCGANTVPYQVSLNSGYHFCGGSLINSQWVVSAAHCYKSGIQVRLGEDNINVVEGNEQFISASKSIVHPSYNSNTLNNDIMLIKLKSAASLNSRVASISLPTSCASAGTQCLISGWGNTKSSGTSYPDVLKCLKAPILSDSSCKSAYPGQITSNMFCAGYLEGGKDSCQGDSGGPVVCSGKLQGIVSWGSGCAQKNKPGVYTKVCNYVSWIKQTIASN
Experiment: EnzChek Protease Assay measuring trypsin activity (trypsin inhibition)
Type: biochemical
Conditions: for Trypsin activity (RFU): control (trypsin only) 1446 RFU; for Normalised activity: control (trypsin only) = 1.0
Source text: Hair growth follows a cycle of activity: anagen (growth phase), catagen (transitional/regression phase), telogen (dormant) followed by renewal of anagen. The telogen phase lasts approximately 3 months. […] The major biochemical activity at this stage is one of proteolysis whereby the proteins anchoring the hair fibre to the structure of the follicle are degraded (Paus & Krejic-Papa J Dermatol Sci 1994 Vol. 7, pp. 202-209; Krejic-Papa et al J Invest Derm Vol. 106, p 557). These enzymes are of the serine protease family of proteases.
Trypsin is a serine protease.
The following experiment uses trypsin as a model for the serine proteases involved in the process of hair fall (exogen). Successful inhibition the activity of the serine proteases such as trypsin is thought to delay the onset of exogen and decrease the amount of hair fall.
The EnzChek Protease Assay (E6639, Molecular Probes) was used to measure trypsin activity.

## CC(C)(C)C(=O)C(Oc1ccc(Cl)cc1)n1ccnc1 (centres unmarked) [Climbazole]
Climbazole 0.0225%
  Trypsin activity (RFU): 1656 RFU
  Normalised activity: 1.15
Climbazole 0.045%
  Trypsin activity (RFU): 1553 RFU
  Normalised activity: 1.07
Summary of the tables of Examples 1-6
  effect on trypsin activity: no effect (or perhaps a positive effect)
